Laboratory results reported in ChEMBL document CHEMBL5120847, “Enceleamycins A-C, Furo-Naphthoquinones from Amycolatopsis sp. MCC0218: Isolation, Structure Elucidation, and Antimicrobial Activity” (2022).
Values after ≈ are worked out from the molar mass of the structure shown.

Tests used:
Format in all cases: functional
Staphylococcus aureus [1] = test: Antibacterial activity against Staphylococcus aureus ATCC 9144 assessed as inhibition of visible bacterial growth incubated for 18 hrs by CLSI protocol based assay
[2] = system: Staphylococcus epidermidis; test: Antibacterial activity against Staphylococcus epidermidis ATCC 12228 assessed as inhibition of visible bacterial growth incubated for 18 hrs by CLSI protocol based assay
Bacillus cereus = test: Antibacterial activity against Bacillus cereus ATCC 11778 assessed as inhibition of visible bacterial growth incubated for 18 hrs by CLSI protocol based assay
Bacillus subtilis = test: Antibacterial activity against Bacillus subtilis ATCC 6633 assessed as inhibition of visible bacterial growth incubated for 18 hrs by CLSI protocol based assay
Micrococcus luteus = test: Antibacterial activity against Micrococcus luteus ATCC 9341 assessed as inhibition of visible bacterial growth incubated for 18 hrs by CLSI protocol based assay
Listeria monocytogenes = test: Antibacterial activity against Listeria monocytogenes ATCC19111 assessed as inhibition of visible bacterial growth incubated for 18 hrs by CLSI protocol based assay
[3] = system: Mycolicibacterium smegmatis; test: Antibacterial activity against Mycobacterium smegmatis ATCC 607 assessed as inhibition of visible bacterial growth incubated for 48 hrs by CLSI protocol based assay
Staphylococcus aureus [4] = test: Antibacterial activity against methicillin-resistant Staphylococcus aureus clinical isolate 3B assessed as inhibition of visible bacterial growth incubated for 18 hrs by CLSI protocol based assay
Staphylococcus aureus [5] = test: Antibacterial activity against methicillin-resistant Staphylococcus aureus clinical isolate 6B assessed as inhibition of visible bacterial growth incubated for 18 hrs by CLSI protocol based assay
Staphylococcus aureus [6] = test: Antibacterial activity against methicillin-resistant Staphylococcus aureus clinical isolate 9B assessed as inhibition of visible bacterial growth incubated for 18 hrs by CLSI protocol based assay
Staphylococcus aureus [7] = test: Antibacterial activity against methicillin-resistant Staphylococcus aureus clinical isolate 10B assessed as inhibition of visible bacterial growth incubated for 18 hrs by CLSI protocol based assay
Escherichia coli = test: Antibacterial activity against Escherichia coli ATCC 8739 assessed as inhibition of visible bacterial growth incubated for 18 hrs by CLSI protocol based assay
Pseudomonas aeruginosa = test: Antibacterial activity against Pseudomonas aeruginosa ATCC 9027 assessed as inhibition of visible bacterial growth incubated for 18 hrs by CLSI protocol based assay

## C[C@H]1O[C@@H]2O[C@@H]3C4C(=O)c5cccc(O)c5C(=O)C4O[C@]3(C)[C@@]21O (stereo partly specified)
Staphylococcus aureus [1]
  MIC: 2 µg/mL (≈ 6.02 µM)
[2]
  MIC: 2 µg/mL (≈ 6.02 µM)
Bacillus cereus
  MIC: 8 µg/mL (≈ 24.1 µM)
Bacillus subtilis
  MIC: 4 µg/mL (≈ 12 µM)
Micrococcus luteus
  MIC: 8 µg/mL (≈ 24.1 µM)
Listeria monocytogenes
  MIC: 2 µg/mL (≈ 6.02 µM)
[3]
  MIC: 64 µg/mL (≈ 193 µM)
Staphylococcus aureus [4]
  MIC: 4 µg/mL (≈ 12 µM)
Staphylococcus aureus [5]
  MIC: 4 µg/mL (≈ 12 µM)
Staphylococcus aureus [6]
  MIC: 4 µg/mL (≈ 12 µM)
Staphylococcus aureus [7]
  MIC: 4 µg/mL (≈ 12 µM)
Escherichia coli
  MIC: > 128 µg/mL
Pseudomonas aeruginosa
  MIC: > 128 µg/mL

## CC(C)Cc1nc([C@H](C)C(=O)O)c(C(C)C)n(O)c1=O
Staphylococcus aureus [1]
  MIC: 128 µg/mL (≈ 453 µM)
[2]
  MIC: 64 µg/mL (≈ 227 µM)
Bacillus cereus
  MIC: 128 µg/mL (≈ 453 µM)
Bacillus subtilis
  MIC: 128 µg/mL (≈ 453 µM)
Micrococcus luteus
  MIC: 64 µg/mL (≈ 227 µM)
Listeria monocytogenes
  MIC: 128 µg/mL (≈ 453 µM)
[3]
  MIC: > 128 µg/mL
Staphylococcus aureus [4]
  MIC: 128 µg/mL (≈ 453 µM)
Staphylococcus aureus [5]
  MIC: 128 µg/mL (≈ 453 µM)
Staphylococcus aureus [6]
  MIC: 128 µg/mL (≈ 453 µM)
Staphylococcus aureus [7]
  MIC: 128 µg/mL (≈ 453 µM)
Escherichia coli
  MIC: > 128 µg/mL
Pseudomonas aeruginosa
  MIC: > 128 µg/mL

## C[C@H]1O[C@]12[C@@H](O)O[C@H]1[C@]2(C)O[C@]2(O)C(=O)c3c(O)cccc3C(=O)[C@@]12O
Staphylococcus aureus [1]
  MIC: 128 µg/mL (≈ 351 µM)
[2]
  MIC: 64 µg/mL (≈ 176 µM)
Bacillus cereus
  MIC: > 128 µg/mL
Bacillus subtilis
  MIC: > 128 µg/mL
Micrococcus luteus
  MIC: > 128 µg/mL
Listeria monocytogenes
  MIC: 128 µg/mL (≈ 351 µM)
[3]
  MIC: > 128 µg/mL
Staphylococcus aureus [4]
  MIC: > 128 µg/mL
Staphylococcus aureus [5]
  MIC: > 128 µg/mL
Staphylococcus aureus [6]
  MIC: > 128 µg/mL
Staphylococcus aureus [7]
  MIC: 128 µg/mL (≈ 351 µM)
Escherichia coli
  MIC: > 128 µg/mL
Pseudomonas aeruginosa
  MIC: > 128 µg/mL

## C[C@H]1O[C@@H]2C3=C(O[C@]2(C)[C@@]1(O)C=O)C(=O)c1c(O)cccc1C3=O
Staphylococcus aureus [1]
  MIC: 8 µg/mL (≈ 24.2 µM)
[2]
  MIC: 8 µg/mL (≈ 24.2 µM)
Bacillus cereus
  MIC: 16 µg/mL (≈ 48.4 µM)
Bacillus subtilis
  MIC: 16 µg/mL (≈ 48.4 µM)
Micrococcus luteus
  MIC: 32 µg/mL (≈ 96.9 µM)
Listeria monocytogenes
  MIC: 8 µg/mL (≈ 24.2 µM)
[3]
  MIC: 64 µg/mL (≈ 194 µM)
Staphylococcus aureus [4]
  MIC: 16 µg/mL (≈ 48.4 µM)
Staphylococcus aureus [5]
  MIC: 8 µg/mL (≈ 24.2 µM)
Staphylococcus aureus [6]
  MIC: 16 µg/mL (≈ 48.4 µM)
Staphylococcus aureus [7]
  MIC: 8 µg/mL (≈ 24.2 µM)
Escherichia coli
  MIC: > 128 µg/mL
Pseudomonas aeruginosa
  MIC: > 128 µg/mL

## CC1(C)S[C@@H]2[C@H](NC(=O)[C@H](N)c3ccccc3)C(=O)N2[C@H]1C(=O)O [AMPICILLIN]
Staphylococcus aureus [1]
  MIC: 0.03 µg/mL (≈ 0.0859 µM)
[2]
  MIC: 1 µg/mL (≈ 2.86 µM)
Bacillus cereus
  MIC: 16 µg/mL (≈ 45.8 µM)
Bacillus subtilis
  MIC: 0.03 µg/mL (≈ 0.0859 µM)
Micrococcus luteus
  MIC: 0.03 µg/mL (≈ 0.0859 µM)
Listeria monocytogenes
  MIC: 0.03 µg/mL (≈ 0.0859 µM)
[3]
  MIC: 64 µg/mL (≈ 183 µM)
Staphylococcus aureus [4]
  MIC: 8 µg/mL (≈ 22.9 µM)
Staphylococcus aureus [5]
  MIC: 8 µg/mL (≈ 22.9 µM)
Staphylococcus aureus [7]
  MIC: 4 µg/mL (≈ 11.4 µM)
Pseudomonas aeruginosa
  MIC: 2 µg/mL (≈ 5.72 µM)

## NC[C@H]1O[C@H](O[C@H]2[C@H](O)[C@@H](O[C@H]3O[C@H](CO)[C@@H](O)[C@H](N)[C@H]3O)[C@H](N)C[C@@H]2N)[C@H](O)[C@@H](O)[C@@H]1O [KANAMYCIN]
Staphylococcus aureus [1]
  MIC: 8 µg/mL (≈ 16.5 µM)
[2]
  MIC: 1 µg/mL (≈ 2.06 µM)
Bacillus cereus
  MIC: 2 µg/mL (≈ 4.13 µM)
Bacillus subtilis
  MIC: 0.5 µg/mL (≈ 1.03 µM)
Micrococcus luteus
  MIC: 8 µg/mL (≈ 16.5 µM)
Listeria monocytogenes
  MIC: 1 µg/mL (≈ 2.06 µM)
[3]
  MIC: 0.25 µg/mL (≈ 0.516 µM)
Staphylococcus aureus [4]
  MIC: > 128 µg/mL
Staphylococcus aureus [5]
  MIC: > 128 µg/mL
Staphylococcus aureus [6]
  MIC: 128 µg/mL (≈ 264 µM)
Staphylococcus aureus [7]
  MIC: > 128 µg/mL
Escherichia coli
  MIC: 8 µg/mL (≈ 16.5 µM)
Pseudomonas aeruginosa
  MIC: 8 µg/mL (≈ 16.5 µM)
